Data published in patent publication US12473250B2, “Molecular design of new antibiotics and antibiotic adjuvants against MCR strains” (priority 2019, dated 2025).

Experiments:
Format in all cases: cell-based
[1] = test system: colistin resistant MCR (+) E. Coli strains; experiment: MIC, broth microdilution, compound alone; conditions: compound alone
Summary of the method: (§1)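 Modified CLSI broth microdilution; inoculum from 18–20 h TSA colonies adjusted to 0.5 McFarland, ~5×10^5 CFU/mL per well. Plates incubated 24 h at 35 °C; turbidity may be read at OD600. MIC defined as concentration giving 99% inhibition.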

[2] = test system: colistin resistant MCR (−) E. Cloacae strain 7023456439; experiment: MIC, broth microdilution, compound alone; conditions: strain 7023456439 E. Cloacae
Summary of the method: as §1

[3] = test system: colistin resistant MCR (−) E. Coli strains; experiment: MIC, broth microdilution, compound alone
Summary of the method: as §1

[4] = test system: colistin resistant MCR (+) E. Coli strains; experiment: Synergy study: colistin MIC in the presence of compound
Summary of the method: (§2)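 CLSI broth microdilution with colistin and LC compound added in equal amounts, 2-fold serial dilution, alone or combined at fixed synergy concentration. MIC taken as lowest concentration with no visible growth after 24 hours of incubation.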

[5] = test system: colistin resistant MCR (−) E. Cloacae strain 7023456439; experiment: as above; conditions: strain 7023456439 E. Cloacae
Summary of the method: as §2

[6] = test system: colistin resistant MCR (−) E. Coli strains; experiment: as above
Summary of the method: as §2

[7] = strain 7028444207 (Table 1b), MCR (+)
[8] = strain 6083655967, MCR(+), compound at 10 μg (Table 2a: 10 ug/ml)
[9] = strain 7023444207, MCR(+), compound at 10 μg (Table 2a: 10 ug/ml)
[10] = compound at 5 μg (Table 2a: 5 ug/ml)
[11] = compound at 10 μg (Table 2a: 10 ug/ml)
[12] = strain 6083672926, MCR(−), compound at 5 μg (Table 2a: 5 ug/ml)
[13] = strain 6083672926, MCR(−), compound at 10 μg (Table 2a: 10 ug/ml)
[14] = strain 7023446108, MCR(−), compound at 5 μg (Table 2a: 5 ug/ml)
[15] = strain 7023446108, MCR(−), compound at 10 μg (Table 2a: 10 ug/ml)
[16] = strain 7033607097, MCR(−), compound at 5 μg (Table 2a: 5 ug/ml)
[17] = strain 7033607097, MCR(−), compound at 10 μg (Table 2a: 10 ug/ml)
[18] = strain 6075066346, MCR(+), compound at 10 μg (Table 2a: 10 ug/ml)
[19] = strain 6103645107, MCR(+), compound at 10 μg (Table 2a: 10 ug/ml)
[20] = strain 6123520276, MCR(+), compound at 10 μg (Table 2a: 10 ug/ml)
[21] = strain 7013177695, MCR(+), compound at 10 μg (Table 2a: 10 ug/ml)
[22] = strain 7023436560, MCR(+), compound at 10 μg (Table 2a: 10 ug/ml)
[23] = strain 6075066346, MCR(+), compound at 2 μg
[24] = strain 6083655967, MCR(+), compound at 2 μg
[25] = strain 6103645107, MCR(+), compound at 2 μg
[26] = strain 6123520276, MCR(+), compound at 2 μg
[27] = strain 7013177695, MCR(+), compound at 2 μg
[28] = strain 7023436560, MCR(+), compound at 2 μg
[29] = strain 7023444207, MCR(+), compound at 2 μg
[30] = strain 6083672926, MCR(−), compound at 2 μg
[31] = strain 7023446108, MCR(−), compound at 2 μg
[32] = strain 7033607097, MCR(−), compound at 2 μg

Row | Compound | MIC ([1]; strain 6075066346, MCR (+)) | MIC ([1]; strain 6083655967, MCR (+)) | MIC ([1]; strain 6103645107, MCR (+)) | MIC ([1]; strain 6123520276, MCR (+)) | MIC ([1]; strain 7013177695, MCR (+)) | MIC ([1]; strain 7023436560, MCR (+)) | MIC [1, 7] | MIC [2] | MIC ([3]; strain 6083672926, MCR (−)) | MIC ([3]; strain 7023446108, MCR (−)) | MIC ([3]; strain 7033607097, MCR (−)) | Colistin MIC in the presence of the compound [4, 8] | Colistin MIC in the presence of the compound [4, 9] | Colistin MIC in the presence of the compound [5, 11] | Colistin MIC in the presence of the compound [6, 13] | Colistin MIC in the presence of the compound [6, 15] | Colistin MIC in the presence of the compound [6, 17] | Colistin MIC in the presence of the compound [4, 24] | Colistin MIC in the presence of the compound [4, 25] | MIC ([1]; strain 7023444207, MCR (+)) | also measured
1 | O=C(C=Cc1ccc(OCCCCN2CCNCCNCCNCC2)cc1)c1ccc(OCCCCN2CCNCCNCCNCC2)cc1O.[Cl][Zn][Cl].[Cl][Zn][Cl] [LC304] | >50 µg/mL | >50 µg/mL | >50 µg/mL | >50 µg/mL | >50 µg/mL | >50 µg/mL | >50 µg/mL | >50 µg/mL | >50 µg/mL | >50 µg/mL | >50 µg/mL | 1.56 µg/mL | 1.56 µg/mL | >12.5 µg/mL | 12.5 µg/mL | 3.125 µg/mL | 3.125 µg/mL |  |  |  | Colistin MIC in the presence of the compound [5, 10]: >12.5 µg/mL; Colistin MIC in the presence of the compound [6, 12]: 12.5 µg/mL; Colistin MIC in the presence of the compound [6, 14]: 3.125 µg/mL; Colistin MIC in the presence of the compound [6, 16]: 3.125 µg/mL
2 | Cc1cc(OCCCCC[N+](C)(C)C)cc(OCCCCC[N+](C)(C)C)c1 [LC310] | >50 µg/mL | >50 µg/mL | >50 µg/mL | >50 µg/mL | >50 µg/mL | >50 µg/mL | >50 µg/mL | >50 µg/mL | >50 µg/mL | >50 µg/mL | >50 µg/mL | 6.25 µg/mL | 6.25 µg/mL | 6.25 µg/mL | 6.25 µg/mL | 6.25 µg/mL | 6.25 µg/mL |  |  |  | Colistin MIC in the presence of the compound [4, 18]: 6.25 µg/mL; Colistin MIC in the presence of the compound [4, 19]: 6.25 µg/mL; Colistin MIC in the presence of the compound [4, 20]: 6.25 µg/mL; Colistin MIC in the presence of the compound [4, 21]: 6.25 µg/mL; Colistin MIC in the presence of the compound [4, 22]: 6.25 µg/mL
3 | CC(C)=CCc1c(OCCCCC[N+](C)(C)C)ccc(C(=O)/C=C/c2ccc(OCCCCC[N+](C)(C)C)cc2)c1O [LC311] | 3.125 µg/mL | 3.125 µg/mL | 3.125 µg/mL | 6.25 µg/mL | 6.25 µg/mL | 3.125 µg/mL | 3.125 µg/mL | 6.25 µg/mL | 3.125 µg/mL | 3.125 µg/mL | 6.25 µg/mL |  |  |  |  |  |  | 0.39 µg/mL | 0.39 µg/mL |  | Colistin MIC in the presence of the compound [4, 23]: 0.78 µg/mL; Colistin MIC in the presence of the compound [4, 26]: 0.39 µg/mL; Colistin MIC in the presence of the compound [4, 27]: 0.78 µg/mL; Colistin MIC in the presence of the compound [4, 28]: 0.39 µg/mL; Colistin MIC in the presence of the compound [4, 29]: 0.39 µg/mL; Colistin MIC in the presence of the compound ([5]; compound at 2 μg): >12.5 µg/mL; Colistin MIC in the presence of the compound [6, 30]: 0.39 µg/mL; Colistin MIC in the presence of the compound [6, 31]: 0.78 µg/mL; Colistin MIC in the presence of the compound [6, 32]: 0.195 µg/mL
4 | CC1(C)C=Cc2c(ccc3c2OCC(c2ccc(OCCCCC[N+](C)(C)C)cc2OCCCCC[N+](C)(C)C)C3)O1 (stereo not drawn) [LC316] | 50 µg/mL | 50 µg/mL | 50 µg/mL | 50 µg/mL | 50 µg/mL | 50 µg/mL |  | >50 µg/mL | >50 µg/mL | 50 µg/mL | >50 µg/mL |  |  |  |  |  |  |  |  | 50 µg/mL | Colistin MIC in the presence of the compound ([4]; strain 6075066346, MCR(+), compound at 5 μg (Table 2a: 5 ug/ml)): 1.55 µg/mL; Colistin MIC in the presence of the compound [5, 10]: >12.5 µg/mL; Colistin MIC in the presence of the compound [6, 12]: 6.25 µg/mL; Colistin MIC in the presence of the compound [6, 14]: 1.56 µg/mL; Colistin MIC in the presence of the compound [6, 16]: 1.56 µg/mL
5 | CC(C)=CCc1c(OCCCC[n+]2ccn(C)c2)ccc(C(=O)/C=C/c2ccc(OCCCC[n+]3ccn(C)c3)cc2)c1O [LC350] | 3.125 µg/mL | 3.125 µg/mL | 3.125 µg/mL | 3.125 µg/mL | 3.125 µg/mL | 3.125 µg/mL |  | >50 µg/mL | 3.125 µg/mL | 3.125 µg/mL | 3.125 µg/mL |  |  |  |  |  |  | 0.195 µg/mL | 0.195 µg/mL | 3.125 µg/mL | Colistin MIC in the presence of the compound [4, 23]: 0.195 µg/mL; Colistin MIC in the presence of the compound [4, 26]: 0.195 µg/mL; Colistin MIC in the presence of the compound [4, 27]: 0.195 µg/mL; Colistin MIC in the presence of the compound [4, 28]: 0.195 µg/mL; Colistin MIC in the presence of the compound [4, 29]: 0.195 µg/mL; Colistin MIC in the presence of the compound ([5]; compound at 2 μg): >12.5 µg/mL; Colistin MIC in the presence of the compound [6, 30]: 0.195 µg/mL; Colistin MIC in the presence of the compound [6, 31]: 0.195 µg/mL; Colistin MIC in the presence of the compound [6, 32]: 0.195 µg/mL
6 | CC(C)=CCc1c(OCCCC[n+]2ccccc2)ccc(C(=O)/C=C/c2ccc(OCCCC[n+]3ccccc3)cc2)c1O [LC365] | 3.125 µg/mL | 3.125 µg/mL | 3.125 µg/mL | 3.125 µg/mL | 3.125 µg/mL | 3.125 µg/mL |  | >50 µg/mL | 3.125 µg/mL | 3.125 µg/mL | 3.125 µg/mL |  |  |  |  |  |  | 0.39 µg/mL | 0.39 µg/mL | 3.125 µg/mL | Colistin MIC in the presence of the compound [4, 26]: 0.39 µg/mL; Colistin MIC in the presence of the compound [4, 29]: 0.39 µg/mL; Colistin MIC in the presence of the compound ([5]; compound at 2 μg): >12.5 µg/mL; Colistin MIC in the presence of the compound [6, 30]: 0.195 µg/mL; Colistin MIC in the presence of the compound [6, 31]: 0.195 µg/mL; Colistin MIC in the presence of the compound [6, 32]: 0.195 µg/mL
7 | CC1(C)C=Cc2c(ccc3c2OCC(c2ccc(OCCCC[n+]4ccccc4)cc2OCCCC[n+]2ccccc2)C3)O1 (stereo not drawn) [LC370] | 50 µg/mL | 50 µg/mL | 50 µg/mL | 50 µg/mL | 50 µg/mL | 50 µg/mL |  | >50 µg/mL | 25 µg/mL | 25 µg/mL | 25 µg/mL | 0.39 µg/mL | 0.195 µg/mL | >12.5 µg/mL | >12.5 µg/mL | 0.195 µg/mL | 0.195 µg/mL |  |  | 50 µg/mL | Colistin MIC in the presence of the compound [4, 18]: 0.195 µg/mL; Colistin MIC in the presence of the compound [4, 19]: 0.195 µg/mL; Colistin MIC in the presence of the compound [4, 20]: 0.195 µg/mL; Colistin MIC in the presence of the compound [4, 21]: 0.195 µg/mL; Colistin MIC in the presence of the compound [4, 22]: 0.195 µg/mL
